Measurements: patent publication US8119660B2, “Small-molecule inhibitors of the androgen receptor” (The Regents of the University of California, priority 2007, dated 2012)
Entries after “also recorded” stand apart in the source; their conditions may differ. Where a name gives a salt, the structure may show the parent alone.

Experiments:
[1] = system: endogenous AR-regulated gene expression, LAPC4 cells; test: qRT-PCR of androgen-responsive genes in LAPC4 cells; assay type: cell-based, human; settings: No DHT = 1, 3 nM DHT alone or with 1 uM BIC, 100 nM PP or 100 nM HH
Experimental: (§1) LAPC4 and LNCaP cells were grown in the presence or absence of 3 nM DHT in charcoal-stripped media, with or without the inhibitors. RNA was harvested using an RNAeasy kit (Qiagen) and reverse transcribed (MMLV-RT, Invitrogen). Real-time PCR was carried out on a 7300 Real Time PCR System (Applied Biosystems) using SYBR green as the detecting dye and Rox as the reference dye. The androgen responsive genes kalikrein 3, or PSA (KLK3) [Cleutjens, K. B., et al., Two androgen response regions cooperate in steroid hormone regulated activity of the prostate-specific antigen promoter. J Biol Chem, 1996. 271(11): p. 6379-88; Nelson, P. S., et al., The program of androgen-responsive genes in neoplastic prostate epithelium. Proc Natl Acad Sci USA, 2002. 99(18): p. 11890-5), metalloproteinase 16 (MMP16) (Nelson, P. S., et al., The program of androgen-responsive genes in neoplastic prostate epithelium. Proc Natl Acad Sci USA, 2002. 99(18): p. 11890-5), transmembrane protease serine 2 (TMPRSS2) (Nelson, P. S., et al., The program of androgen-responsive genes in neoplastic prostate epithelium. Proc Natl Acad Sci USA, 2002. 99(18): p. 11890-5; […] Vaarala, M. H., et al., Expression of transmembrane serine protease TMPRSS2 in mouse and human tissues. J Pathol, 2001. 193(1): p. 134-40), FK506-binding immunophilin 51 (FKBP51) (Nelson, P. S., et al., The program of androgen-responsive genes in neoplastic prostate epithelium. Proc Natl Acad Sci USA, 2002. 99(18): p. 11890-5; Amler, L. C., et al., Dysregulated expression of androgen-responsive and nonresponsive genes in the androgen-independent prostate cancer xenograft model CWR22-R1. Cancer Res, 2000. 60(21): p. 6134-41; Velasco, A. M., et al., Identification and validation of novel androgen-regulated genes in prostate cancer. Endocrinology, 2004. 145(8): p. 3913-24; Magee, J. A., et al., Direct, androgen receptor-mediated regulation of the FKBP5 gene via a distal enhancer element. Endocrinology, 2006. 147(1): p. 590-8), G-protein coupled receptor RDC1 homolog, or chemokine orphan receptor 1 (RDC-1) (Nelson, P. S., et al., The program of androgen-responsive genes in neoplastic prostate epithelium. Proc Natl Acad Sci USA, 2002. 99(18): p. 11890-5), NK homeobox family member 3 (Nk×3.1) (Nelson, P. S., et al., The program of androgen-responsive genes in neoplastic prostate epithelium. Proc Natl Acad Sci USA, 2002. 99(18): p. 11890-5; Bieberich, C. J., et al., Prostate-specific and androgen-dependent expression of a novel homeobox gene. J Biol Chem, 1996. 271(50): p. 31779-82; […]) were all normalized to the transcription of the housekeeping ribosomal gene (RPL19). All samples were done in triplicate and separately normalized.

[2] = system: endogenous AR-regulated gene expression, LNCaP cells; test: qRT-PCR of androgen-responsive genes in LNCaP cells; assay type: cell-based, human; settings: No DHT = 1, 3 nM DHT alone or with 1 uM BIC, 100 nM PP or 100 nM HH
Experimental: as §1

LNCaP cells = test: Cell proliferation (DNA content, DAPI), LNCaP; assay type: cell-based, human; settings: 3 nM DHT, seven days, PP 100 nM, HH 100 nM, BiC 1 μM, hydrochloride
Description: (§2) LN-AR cells were created by retroviral infection of a high-expressing AR vector into LNCaP cells, and proliferate independent of androgen in cell culture, unlike their parental line (Chen, C. D., et al., Molecular determinants of resistance to antiandrogen therapy. Nat Med, 2004. 10(1): p. 33-9). HEK293 cells were used as a control. Cells were transferred to charcoal-stripped media two days before they were split and plated in quadruplicate at a density of approximately 20,000 cells/well in 48-well plates. […] Media were changed every day, using a single preparation to ensure consistent compound concentrations. Proliferation was determined by measuring the DNA content of the cells in each well. Each day, the cells in four wells were fixed in 100% cold methanol, followed by staining for 5 min at RT with 0.2 ng/mL 4′,6-diamidino-2-phenylindole (DAPI) in PBS. The cells were washed once in PBS, then read on a fluorescence plate reader using 365/439 excitation/emission wavelengths. LAPC4 and LNCaP cells proliferated to a much greater degree in the presence of DHT, while LN-AR cells proliferated in the presence and absence of DHT.

LAPC4 cells = test: Cell proliferation (DNA content, DAPI), LAPC4; assay type: cell-based, human; settings: LAPC4, 3 nM DHT, seven days; PP 100 nM, HH 100 nM, BiC 1 μM
Description: as §2

HEK293 cells = test: Cell proliferation (DNA content, DAPI), HEK293 control; assay type: cell-based; settings: HEK293, seven days; PP 100 nM, HH 100 nM, BiC 1 μM
Description: as §2

[3] = Pharmacokinetics in mice, drug levels by mass spectrometry; assay type: in vivo; settings: for concentration at […]: 0.25 hr
Description: Serum samples were obtained at fixed time intervals, and the drug levels determined by mass spectrometry.

Question: For `Cc1nccc2c1[nH]c1cc(O)ccc12` [HH, harmol hydrochloride], which “FKBP51 transcription (normalized to RPL19)” value [1] is on record?
Answer: The value was 11.96.

Question: And the “KLK3 transcription (normalized to RPL19)” value [1]?
Answer: The value was 1.64.

Question: And the “MMP16 transcription (normalized to RPL19), androgen-repressed gene” value [1]?
Answer: The value was 4.74.

Question: And the “Nkx3.1 transcription (normalized to RPL19)” value [1]?
Answer: Its value is 1.55.

Question: And the “RDC1 transcription (normalized to RPL19), androgen-repressed gene” value [1]?
Answer: Its value is 2.88.

Question: And the “TMPRSS2 transcription (normalized to RPL19)” value [1]?
Answer: The value was 1.86.

Question: And the “FKBP51 transcription (normalized to RPL19)” value [2]?
Answer: Its value is 1.90.

Question: What about the “KLK3 transcription (normalized to RPL19)” value [2] of the same compound?
Answer: Its value is 1.46.

Question: What about the “MMP16 transcription (normalized to RPL19), androgen-repressed gene” value [2] of the same compound?
Answer: The value was 1.02.

Question: What about the “Nkx3.1 transcription (normalized to RPL19)” value [2] of the same compound?
Answer: Its value is 1.28.

Question: What about the “RDC1 transcription (normalized to RPL19), androgen-repressed gene” value [2] of the same compound?
Answer: The value was 1.22.

Question: What about the “TMPRSS2 transcription (normalized to RPL19)” value [2] of the same compound?
Answer: Its value is 1.22.

Question: And the “Inhibition of cell growth” value (LNCaP cells)?
Answer: The value was “inhibited significantly; also recorded: exhibited growth-inhibitory properties”.

Question: What about the “Inhibition of cell growth” value (LAPC4 cells) of the same compound?
Answer: The value was “not effective”.

Question: And the “Non-specific growth inhibition of control cells” value (HEK293 cells)?
Answer: The value was “Neither compound exhibited non-specific growth inhibition”.

Question: What about the concentration at […] ([3]; FVB, mouse, plasma, mice, IP, 5 mg/kg single dose) of the same compound?
Answer: Its concentration at […] is 32.3 ng/mL.

Question: What about the concentration at 1 h ([3]; FVB, mouse, plasma, mice, IP, 5 mg/kg single dose, 1 hr) of the same compound?
Answer: The concentration at 1 h was 5 ng/mL.

Question: What about the concentration at […] ([3]; FVB, mouse, plasma, mice, PO, 5 mg/kg single dose) of the same compound?
Answer: Its concentration at […] is 6.7 ng/mL.

Question: What about the “Clearance / half-life in words” value ([3]; Wild-type FVB mice, single intraperitoneal injection) of the same compound?
Answer: Its value is “rapidly cleared”.
